Results taken from the supplement of paper PMC10307832.

Legend:
Assay in all cases: relative viability (nuclei count vs DMSO), 5 days (fraction); higher = more cells survive
Ibrutinib + Tozasertib = compound: C=CC(=O)N1CCC[C@@H](n2nc(-c3ccc(Oc4ccccc4)cc3)c3c(N)ncnc32)C1 [Ibrutinib] + Cc1cc(Nc2cc(N3CCN(C)CC3)nc(Sc3ccc(NC(=O)C4CC4)cc3)n2)n[nH]1 [Tozasertib] (partner 0.1 µM)
Method in brief: (§1)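 Relative viability was taken as the ratio of nuclei in treated wells to nuclei in vehicle wells. Lung cancer cell lines in 1536-well plates received compounds by pin tool one day after seeding, either one drug alone or a fixed anchor-drug dose plus five library-drug doses (not always all listed) in √10 steps. Nuclei were counted on 4× images after 5 days of treatment, and values are medians of duplicate plates.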

BMX-IN-1 + Trametinib = compound: C=CC(=O)Nc1cc(-n2c(=O)ccc3cnc4ccc(-c5ccc(NS(C)(=O)=O)cc5)cc4c32)ccc1C [BMX-IN-1] + CC(=O)Nc1cccc(-n2c(=O)n(C3CC3)c(=O)c3c(Nc4ccc(I)cc4F)n(C)c(=O)c(C)c32)c1 [Trametinib] (partner 0.02 µM)
Method in brief: as §1

BMX-IN-1 + Pemetrexed = compound: C=CC(=O)Nc1cc(-n2c(=O)ccc3cnc4ccc(-c5ccc(NS(C)(=O)=O)cc5)cc4c32)ccc1C [BMX-IN-1] + Nc1nc2[nH]cc(CCc3ccc(C(=O)N[C@@H](CCC(=O)O)C(=O)O)cc3)c2c(=O)[nH]1 [Pemetrexed] (partner 0.2 µM)
Method in brief: as §1

PAC-1 + Dasatinib = compound: C=CCc1cccc(/C=N/NC(=O)CN2CCN(Cc3ccccc3)CC2)c1O [PAC-1] + Cc1nc(Nc2ncc(C(=O)Nc3c(C)cccc3Cl)s2)cc(N2CCN(CCO)CC2)n1 [Dasatinib] (partner 0.075 µM)
Method in brief: as §1

Row | Cell Line | relative viability (Ibrutinib + Tozasertib; first compound 0.005 µM) | relative viability (Ibrutinib + Tozasertib; first compound 0.01581 µM) | relative viability (Ibrutinib + Tozasertib; first compound 0.05 µM) | relative viability (Ibrutinib + Tozasertib; first compound 0.1581 µM) | relative viability (Ibrutinib + Tozasertib; first compound 0.5 µM) | relative viability (BMX-IN-1 + Trametinib; first compound 0.02 µM) | relative viability (BMX-IN-1 + Trametinib; first compound 0.2 µM) | relative viability (BMX-IN-1 + Trametinib; first compound 0.6325 µM) | relative viability (BMX-IN-1 + Trametinib; first compound 2 µM) | relative viability (BMX-IN-1 + Pemetrexed; first compound 0.02 µM) | relative viability (BMX-IN-1 + Pemetrexed; first compound 0.2 µM) | relative viability (BMX-IN-1 + Pemetrexed; first compound 0.6325 µM) | relative viability (BMX-IN-1 + Pemetrexed; first compound 2 µM) | relative viability (PAC-1 + Dasatinib; first compound 0.02 µM) | relative viability (PAC-1 + Dasatinib; first compound 0.06325 µM) | relative viability (PAC-1 + Dasatinib; first compound 0.2 µM) | relative viability (PAC-1 + Dasatinib; first compound 2 µM)
1 | NCI-H650 | 0.783 | 0.672 | 0.758 | 0.808 | 0.782 | 1.01 | 0.912 | 0.979 | 0.919 | 0.926 | 0.961 | 0.956 | 0.919 | 0.426 | 0.455 | 0.406 | 0.45
2 | NCI-H661 | 0.353 | 0.372 | 0.384 | 0.348 | 0.389 | 0.634 | 0.597 | 0.642 | 0.535 | 1.02 | 0.96 | 0.961 | 0.899 | 0.992 | 1 | 0.89 | 0.892
3 | NCI-H838 | 0.261 | 0.261 | 0.285 | 0.27 | 0.277 | 0.605 | 0.518 | 0.562 | 0.568 | 0.255 | 0.244 | 0.237 | 0.236 | 0.247 | 0.278 | 0.243 | 0.311
4 | NCI-H1355 | 0.601 | 0.518 | 0.517 | 0.62 | 0.491 | 0.385 | 0.459 | 0.463 | 0.45 | 1.1 | 1.1 | 1.06 | 1.04 | 0.75 | 0.722 | 0.667 | 0.711
5 | NCI-H1395 | 0.77 | 0.688 | 0.782 | 0.74 | 0.776 | 1.19 | 1.12 | 0.958 | 0.966 | 0.877 | 0.976 | 0.722 | 0.756 | 0.403 | 0.476 | 0.387 | 0.422
6 | NCI-H1437 | 0.437 | 0.373 | 0.472 | 0.403 | 0.391 | 0.677 | 0.489 | 0.605 | 0.614 | 0.351 | 0.285 | 0.34 | 0.292 | 0.298 | 0.425 | 0.459 | 0.278
7 | NCI-H1650 | 0.329 | 0.36 | 0.4 | 0.394 | 0.302 | 0.576 | 0.539 | 0.682 | 0.611 | 0.354 | 0.354 | 0.541 | 0.325 | 0.363 | 0.305 | 0.263 | 0.361
8 | NCI-H1651 | 0.558 | 0.7 | 0.757 | 0.668 | 0.944 | 0.866 | 0.908 | 0.879 | 0.893 | 0.391 | 0.642 | 0.781 | 0.486 | 0.391 | 0.446 | 0.394 | 0.393
9 | NCI-H1666 | 0.628 | 0.59 | 0.602 | 0.583 | 0.536 | 0.788 | 1.06 | 0.977 | 0.885 | 0.908 | 0.881 | 0.877 | 0.867 | 0.834 | 0.845 | 0.793 | 0.836
10 | NCI-H1734 | 0.272 | 0.245 | 0.299 | 0.257 | 0.257 | 0.732 | 0.751 | 0.735 | 0.7 | 0.451 | 0.409 | 0.407 | 0.377 | 0.361 | 0.521 | 0.397 | 0.51
11 | NCI-H1755 | 0.628 | 0.574 | 0.695 | 0.613 | 0.528 | 0.703 | 0.81 | 0.853 | 0.695 | 0.41 | 0.6 | 0.39 | 0.552 | 0.426 | 0.446 | 0.384 | 0.443
12 | NCI-H1793 | – | 0.288 | 0.254 | 0.462 | 0.208 | 0.544 | 0.454 | 0.505 | 0.454 | 0.945 | 1.01 | 0.966 | 0.806 | 0.373 | 0.373 | 0.364 | 0.412
13 | NCI-H1915 | 0.498 | 0.439 | 0.447 | 0.485 | 0.428 | 0.326 | 0.302 | 0.519 | 0.317 | 0.585 | 0.522 | 0.484 | 0.396 | 0.313 | 0.336 | 0.317 | 0.29
14 | NCI-H1944 | 0.247 | 0.217 | 0.21 | 0.24 | 0.198 | 0.395 | 0.416 | 0.419 | 0.392 | 0.632 | 0.746 | 0.603 | 0.592 | 0.209 | 0.222 | 0.204 | 0.216
15 | NCI-H1975 | 0.82 | 0.688 | 0.695 | 0.806 | 0.403 | 0.309 | 0.348 | 0.395 | 0.377 | 0.321 | 0.312 | 0.29 | 0.279 | 0.358 | 0.363 | 0.336 | 0.347
16 | NCI-H1993 | 0.594 | 0.529 | 0.541 | 0.566 | 0.524 | 0.531 | 0.588 | 0.464 | 0.56 | 0.65 | 0.669 | 0.645 | 0.622 | 0.65 | 0.611 | 0.421 | 0.483
17 | NCI-H2009 | 0.737 | 0.778 | 0.77 | 0.788 | 0.831 | 0.254 | 0.251 | 0.239 | 0.29 | 1.08 | 1.06 | 1.09 | 1.07 | 0.267 | 0.305 | 0.291 | 0.334
